According to PMC4236014, “Intestine-Targeted DGAT1 Inhibition Improves Obesity and Insulin Resistance without Skin Aberrations in Mice” (PLoS ONE, 2014):
“And” between values parts separate entries of the source, which are not always exact repeats. Identical values can stand only once. “Also recorded” adds a separate entry of the source.

Key:
[1] = Compound distribution in mice (plasma, skin, intestine) after oral 30 mg/kg; assay type: in vivo, C57BL/6J mice; details: for Tmax / concentration at 24 h / Kp / Cmax: C57BL/6J, mouse; for Tmax: in vivo; for concentration at 24 h: intestine, 24 h after administration, read-out: C 24 in intestine; for Kp: intestine/plasma, read-out: Intestine/Plasma ratio at T max; for Cmax: plasma, read-out: C max in plasma; for Cmax / C max in intestine / C max in skin: 3 mice
Protocol: Exposure was analyzed using blood, skin, and intestine samples from the C57BL/6J mice orally treated with 30 mg/kg of a compound. At 1, 4, 8, and 24 h after the administration, mice were anesthetized with isoflurane, and blood, skin, and intestine samples were collected. Three mice were used in each group. The blood samples were collected with sodium heparin, subjected to centrifugation, and plasma samples were collected. The skin and the intestine were homogenized and centrifuged to collect samples. The compound concentrations in each tissue sample with values equal to or greater than the lower limit of quantification (LLOQ; 0.005 µg/ml) were used for analyses (HPLC-MS/MS: Shiseido, Tokyo, Japan, Thermofisher Scientific, Waltham, MA).

HepG2 human liver cells = assay: Triglyceride synthesis in HepG2 cells (14C oleic acid incorporation); assay type: cell-based; details: Compound A 0.3 to 3 µM, Compound B 0.1 to 3 µM
Protocol: (§1) The HT-29 cell line (American Type Culture Collection, Manassas, VA) was maintained in the McCoy’s 5A medium (Life Technologies, Carlsbad, CA) containing 10% fetal bovine serum. The HepG2 cell line (American Type Culture Collection) was maintained in the Dulbecco’s Modified Eagle Medium (Sigma-Aldrich, St. Louis, MO) containing 10% fetal bovine serum. For the experiments, the HT-29 cells were plated in 12-well plates at 3×10^5 cells, the HepG2 cells were plated in 12-well plates at 5×10^5 cells. The cells were cultured in serum-free media for 24 h, and incubated with a compound and oleic acid-albumin (Sigma-Aldrich) solubilized in dimethyl sulfoxide (final 0.1%) for 30 min. The triglyceride synthesis was initiated by the addition of ^14C oleic acid (0.2 µCi). The cells were washed in PBS and harvested into the organic phase using hexane:2-propanol (3∶2) 30 min after initiation of the triglyceride synthesis. The solvent was evaporated, the extracts were solubilized in chloroform, and lipids were separated via TLC. Incorporation of the radiolabel into the triglyceride fraction was analyzed using BAS2000 in triplicate. The IC50 of each compound was calculated using GraphPad Prism.

[2] = mouse plasma protein binding; assay type: in vitro ADME
[3] = system: skin of diet-induced-obese (DIO) mice; assay: Effects on the skin in diet-induced-obese (DIO) mice, 4-week treatment, histopathology; assay type: in vivo, C57BL/6J mice; details: 4 weeks; for skin aberrations (histopathology): oral, 30 mg/kg Compound A once daily, 30 mg/kg Compound B twice daily, 30 mg/kg
Protocol: After 10 weeks on high-fat diet, mice became obese (36±0.24 g). […] After 4 weeks of the treatment, all the animals were sacrificed. The skin (dorsolateral lesion) was removed and then fixed in 10% neutral buffered formalin, processed, embedded in paraffin, cut into thin sections and stained with Hematoxylin and Eosin. Histopathological examinations were performed. The size of the sebaceous glands were measured using WinROOF (Mitani Corporation, Tokyo, Japan).

mouse skin homogenates = assay: Triglyceride synthesis in mouse skin homogenates; assay type: biochemical
Log D (lipophilicity) = assay type: physicochemical
HT-29 human colon cells = assay: Triglyceride synthesis in HT-29 cells (14C oleic acid incorporation); assay type: cell-based; details: Compound A 0.3 to 3 µM, Compound B 0.1 to 3 µM
Protocol: as §1

mouse DGAT1 = target: T1, mouse DGAT1 (Mus musculus, UniProt Q9Z2A7); assay: DGAT1 enzyme assay (mouse DGAT1 in Sf9 insect microsomes, 14C decanoyl CoA); assay type: biochemical; details: enzyme expressed in insect microsomes; read-out: mDGAT1 IC50
T1 construct: made in house; host or cells: Sf9 insect cells (baculovirus)
T1 sequence (Q9Z2A7 1-498): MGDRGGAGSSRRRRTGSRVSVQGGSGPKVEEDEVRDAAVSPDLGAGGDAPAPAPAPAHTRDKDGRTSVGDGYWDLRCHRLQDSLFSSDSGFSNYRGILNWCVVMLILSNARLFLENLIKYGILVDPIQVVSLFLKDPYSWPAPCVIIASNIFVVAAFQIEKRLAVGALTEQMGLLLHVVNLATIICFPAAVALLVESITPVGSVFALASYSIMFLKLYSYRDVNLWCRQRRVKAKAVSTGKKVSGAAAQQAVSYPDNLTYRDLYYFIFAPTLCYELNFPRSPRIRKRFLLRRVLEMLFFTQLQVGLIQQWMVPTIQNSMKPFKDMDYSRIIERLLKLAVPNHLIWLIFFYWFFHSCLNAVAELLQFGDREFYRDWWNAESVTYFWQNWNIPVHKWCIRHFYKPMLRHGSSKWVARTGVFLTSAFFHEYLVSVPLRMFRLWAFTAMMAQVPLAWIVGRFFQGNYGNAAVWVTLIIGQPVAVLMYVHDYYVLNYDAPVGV
Protocol: (§2) The effects of the DGAT1 inhibitors were assessed using human (BC015762 from HeLa cell) and mouse DGAT1 (NM_010046 from mouse testis) in Sf9 insect microsomes. […] The Sf9 cells were homogenized and centrifuged at 600 g for 20 min. Thereafter, the supernatant was centrifuged at 10000 g for 1 h and the precipitate was collected as the […].
(§3) The mixture was incubated at room temperature for 45 min. The reaction was stopped by adding 0.5 M HCl and the incubated mixture was filtered using MultiscreenHTS-FB (Millipore, Billerica, MA). The human DGAT1 activity was quantified by counting the radioactivity of synthesized ^14C triglycerides by the Microbeta scintillation counter (PerkinElmer, Waltham, MA) in duplicate. […] Mouse DGAT1 enzyme assays were carried out in the same way.

[4] = system: glucagon-like peptide-1 (GLP-1) secretion; assay: GLP-1 secretion in mice after corn oil; assay type: in vivo; details: oral 10 and 30 mg/kg, 2 h after corn oil
Protocol: Mice were divided into treatment groups, each consisting of 6–8 mice, based on the body weight for the purpose of simplification of dose calculation. […] Blood samples were collected 2 h later, and the plasma GLP-1 level was determined by using Glucagon Like Peptide-1 (Active) ELISA Kit (Linco Research, Inc., St. Charles, MO).

human DGAT1 = target: T2, human DGAT1 (Homo sapiens, UniProt O75907); assay: DGAT1 enzyme assay (human DGAT1 in Sf9 insect microsomes, 14C decanoyl CoA); assay type: biochemical; details: enzyme expressed in insect microsomes; read-out: hDGAT1 IC50
T2 construct: made in house; host or cells: Sf9 insect cells (baculovirus)
T2 sequence (O75907 1-488): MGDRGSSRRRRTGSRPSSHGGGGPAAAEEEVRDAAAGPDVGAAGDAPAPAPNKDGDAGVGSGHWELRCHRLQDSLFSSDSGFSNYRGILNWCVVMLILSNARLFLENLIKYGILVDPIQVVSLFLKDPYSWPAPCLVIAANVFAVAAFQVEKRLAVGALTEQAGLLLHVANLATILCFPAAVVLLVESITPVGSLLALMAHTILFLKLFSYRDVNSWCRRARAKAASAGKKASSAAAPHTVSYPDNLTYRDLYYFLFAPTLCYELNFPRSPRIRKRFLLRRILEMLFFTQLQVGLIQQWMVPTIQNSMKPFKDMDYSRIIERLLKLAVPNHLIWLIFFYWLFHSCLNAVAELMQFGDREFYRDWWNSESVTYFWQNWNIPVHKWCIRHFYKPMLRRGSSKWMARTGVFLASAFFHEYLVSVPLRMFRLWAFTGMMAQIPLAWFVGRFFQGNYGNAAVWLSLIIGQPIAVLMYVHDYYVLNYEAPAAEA
Protocol: as §2, §3

[5] = system: diet-induced-obese (DIO) mice; assay: Long-time (4-week) treatment in DIO mice; assay type: in vivo, C57BL/6J mice; details: 4 weeks
Protocol: The DIO mice were fed with high-fat diet during the 4-week treatment period. Mice were fasted for 4 hours prior to blood collection. Plasma glucose, insulin, triglyceride, and free fatty acid concentrations were determined by using Glucose CII Test Wako (Wako), ultra sensitive mouse ELISA (Morinaga, Yokohama, Japan), L type WAKO TG H, and HA test WAKO NEFA (Wako), respectively.

[6] = system: postprandial hyperlipidemia in mice; assay: Postprandial hyperlipidemia in mice (corn oil load); assay type: in vivo, C57BL/6J mice
Protocol: Eight-week-old male C57BL/6J mice were divided into treatment groups, each consisting of 7–8 mice, based on the body weight for the purpose of simplification of dose calculation. […] Blood samples were collected 1, 2, and 3 h later, and the plasma triglyceride level was determined by using WAKO TG H (Wako, Osaka, Japan). The area under the curve (AUC) of plasma triglyceride (AUCtriglyceride) was calculated.

| Tmax [1] | concentration at 24 h ([1]; means ± SD) | Kp ([1]; means ± SD) | Cmax ([1]; means ± SD) | C max in intestine ([1]; means ± SD) | C max in skin ([1]; means ± SD) | fraction unbound [2] | logD (Log D (lipophilicity)) | Structure (SMILES) | inhibition of cellular triglyceride synthesis (HepG2 human liver cells) | skin aberrations (histopathology) [3] | inhibition of triglyceride synthesis (mouse skin homogenates) | inhibition of cellular triglyceride synthesis (HT-29 human colon cells) | also measured |
| --- | --- | --- | --- | --- | --- | --- | --- | --- | --- | --- | --- | --- | --- |
| 1 h | 24 ± 1.6 µM | 0.32 | 240 ± 59 µM | 77 ± 37 µmol/kg | 14 ± 0.62 µmol/kg | 0.032 | < 0.9 | CC1(C)Oc2ncnc(N)c2N=C1c1ccc([C@H]2CC[C@H](CC(=O)O)CC2)cc1 [Compound A, 4-[4-(4-amino-2,7,7-trimethyl-7H-pyrimido[4,5-b][1], [4]oxazin-6-yl)phenyl]-trans-Cyclohexaneacetic acid] | at all the concentrations tested | skin aberrations derived from atrophy of the sebaceous gland; also recorded: moderate skin aberrations | inhibited the cellular triglyceride synthesis | significant inhibition was observed at 1 and 3 µM | injurious or inflammatory changes of the skin ([3]; 30 mg/kg once daily): no injurious or inflammatory changes; recovery of skin aberrations after compound withdrawal ([3]; 30 mg/kg once daily, then withdrawal): 2 weeks |
| 1 h | 19 ± 3.7 µM | 10 | 9.1 ± 2.3 µM | 92 ± 36 µmol/kg | 1.3 ± 0.51 µmol/kg | 0.001 | < 0.9 | O=C(Nc1ccccc1)Nc1ccc(-c2ccc(C(=O)[C@@H]3CCC[C@H]3C(=O)O)cc2)cc1 [Compound B, (1R, 2R)-2-[[4′-[[(Phenylamino)carbonyl]amino][1,1′-biphenyl]-4-yl]carbonyl]cyclopentanecarboxylic acid] | at all the concentrations tested | changes in the skin were not observed; also recorded: no skin aberrations | inhibited the cellular triglyceride synthesis | significant inhibition was observed at 1 and 3 µM | skin/IC50 (C max in skin/mDGAT1 IC50) ([1]; means ± SD): 0.084±0.033; Intestine/Plasma ratio at T max ([1]; means ± SD, 30 mg/kg): 10±2.8; Intestine/Skin ratio at T max ([1]; means ± SD, 30 mg/kg): 74 and 74±8.4; IC50 (mouse DGAT1): 15.5 nM; plasma GLP-1 levels after corn oil administration [4]: increased plasma glucagon-like peptide-1 (GLP-1) levels; IC50 (human DGAT1): 8.4 nM; fatty liver (histological analysis) ([5]; 10 or 30 mg/kg): attenuated fatty liver; body weight gain ([5]; oral 1, 3, 10 or 30 mg/kg twice daily): significant attenuation and significant reduction were observed at 10 mg/kg and 30 mg/kg, respectively; concentration of total-cholesterol in the liver ([5]; oral twice daily): significant reduction was observed at 30 mg/kg; concentration of triglyceride in the liver ([5]; oral twice daily): significant reduction was observed at 30 mg/kg; liver weight ([5]; oral twice daily): lack of differences in the liver weight among the groups; plasma glucose levels ([5]; oral twice daily): significant reduction was observed at 30 mg/kg; plasma insulin concentrations ([5]; oral twice daily): tended to decrease; weight of epididymal fat ([5]; oral twice daily): significant reduction was observed at 30 mg/kg; weight of mesenteric fat ([5]; oral twice daily): significant reduction was observed at 30 mg/kg; plasma triglyceride levels after corn oil ([6]; oral 0.3, 1, 3 or 10 mg/kg 12 h before 3 ml/kg corn oil): reduced plasma triglyceride levels with a dose-dependent tendency; dose of maximum efficacy on plasma triglyceride ([6]; oral, 12 h before corn oil): 10 mg/kg |
